Data from patent US20110076293A1, “TRIPTOLIDE DERIVATIVES FOR MODULATION OF APOPTOSIS AND IMMUNOSUPPRESSION” (priority 2002, published 2011).

Legend:
[1] = test system: Jurkat human T lymphocyte cell line; assay: Apoptosis assay (Annexin V) of compounds incubated with human serum; settings: for % apoptotic cells at given concentration (nM): Table 5
Procedure: Compounds of formula I, as shown in Table 1 above and in the Examples, were assayed for their capacity to induce apoptosis in cells from the Jurkat human T lymphocyte cell line, after incubation with pooled human serum for varying periods of time at 37° C. (see Example 19). An ester prodrug, triptolide-14-succinate, designated PG490-88, was included for comparison. The extent of conversion to triptolide after such incubation was also independently determined by HPLC analysis.
The ED50 values (column 3) are calculated directly from the data in each experiment, and the % conversion values (column 4) are calculated as percent of the ED50 value produced by triptolide, designated PG490, incubated in the same plasma (i.e. in the same experiment).
A. Incubation of compounds with human serum. Pooled human serum was stored in aliquots at −80° C. Test compounds were added at 20 mM to thawed human serum in 1.5 ml microfuge tubes and incubated at 37° C. in a water bath for varying periods of time. The test samples were placed on ice until dilution for the bioassay. Controls consisted of the compounds incubated in complete tissue culture medium (RPMI 1640 medium plus 5% heat-inactivated fetal calf serum, 1% HEPES, 1% pen/strep, 1% glutamine) rather than human serum.
B. Apoptosis assay of compounds incubated with human serum. Test samples were diluted to 1 mM in complete tissue culture medium. Aliquots were placed in microculture plates and serial dilutions were prepared so that the final concentration would encompass the range of 1 to 10,000 nM with half-log increments. Cells from an exponentially expanding culture of the Jurkat human T lymphocyte cell line (#TIB-152 obtained from American Type Culture Collection, Manassas, Va.) were harvested, washed once by centrifugation and dilution in complete tissue culture medium, and diluted to a concentration of 1×10^6 cells/ml. A volume of 100 μl of Jurkat cells (1×10^5 cells) was added to wells containing 100 μl of the diluted compounds, and the plates were incubated at 37° C. in a 5% CO2 incubator. After 24 hours, the plates were centrifuged to pellet the cells, and the cells were washed twice with 2% heat-inactivated fetal calf serum in PBS. To each well, 500 ul of binding buffer was added according to the Annexin V assay procedure (BioVision, Inc., Mountain View, Calif.). Next, 5 μl of the fluorescein isothiocyanate (FITC) conjugate of Annexin V (BioVision, Inc.) was added to each well, followed by 5 minutes of incubation in the dark. In some assays, propidium iodide (BioVision, Inc.) was added at this stage to check for necrotic cells. The contents of the wells were individually transferred into test tubes, and apoptosis was analyzed using a FACSCalibur flow cytometer (BD Immunocytometry Systems, San Jose, Calif.). Cells positive for Annexin V binding were considered to be apoptotic, and the data were calculated as percent apoptotic cells.
C. Comparison of bioactivities after incubation of compounds in human serum. The data were plotted as the concentration of compound incubated in serum versus percent apoptotic cells. The concentration of compound inducing 50% apoptosis (ED50) was calculated from these dose response curves. […] This percentage conversion was used to compare the bioactivity of various compounds after incubation in human serum.

[2] = test system: IL-2 production in Jurkat human T lymphocyte cells; assay: IL-2 production assay for activity of compounds incubated with human serum; settings: for IL-2 pg/mL at given concentration (nM): Table 7, Jurkat cells (48 hrs)
Procedure: Several compounds of formula I were analyzed for their capacity to inhibit IL-2 production in Jurkat human T lymphocyte cells, after incubation with pooled human serum for 48 hours at 37° C. (see Example 20). An ester prodrug, triptolide-14-succinate, designated PG490-88, was included for comparison.
The IC50 values (column 1) are calculated directly from the data in each experiment. The % conversion values (column 2) are calculated as the percent of the IC50 value produced by triptolide, designated PG490, incubated in the same plasma (i.e. in the same experiment).
A. IL-2 production assay for activity of compounds incubated with human serum. Test samples were diluted to 1 mM in complete tissue culture medium. […] Cells from an exponentially expanding culture of the Jurkat human T lymphocyte cell line (#TIB-152 obtained from American Type Culture Collection, Manassas, Va.) were harvested, washed once by centrifugation and dilution in complete tissue culture medium, and diluted to a concentration of 2×10^6 cells/ml. A volume of 50 μl of Jurkat cells (1×10^5 cells) was added to wells containing 100 μl of the diluted compounds, 50 μl of PMA (10 ng/ml) was added to each well, and the plates were incubated at 37° C. in a 5% CO2 incubator. After 24 hours, the plates were centrifuged to pellet the cells, 150 μl of supernatant was removed from each well, and the samples were stored at −20° C. The stored supernatants were analyzed for human IL-2 concentration using the Luminex 100 (Luminex Corporation, Austin, Tex.), Luminex microspheres coupled with anti-IL-2 capture antibody, and fluorochrome-coupled anti-IL-2 detection antibody. The data were expressed as ng/ml of IL-2.
B. Comparison of bioactivities after incubation of compounds in human serum. The data were plotted as the concentration of compound incubated in serum versus IL-2 concentration. The concentration of compound inducing a 50% decrease in the IL-2 concentration (IC50) was calculated from these dose response curves. […] This percentage conversion was used to compare the bioactivity of various compounds after incubation in human serum.

## CC(C)[C@]12O[C@H]1[C@@H]1O[C@]13[C@]1(O[C@H]1C[C@H]1C4=C(CC[C@@]13C)C(=O)OC4)[C@@H]2OC(=O)NCCN(C)C [PG688, Triptolide 14-Dimethylaminoethyl Carbamate]
[1]
  conversion in human serum (in words): less readily converted
[1]; human serum (48 hrs), 1 nM
  % apoptotic cells at given concentration (nM): 9.2%
[1]; human serum (48 hrs), 3 nM
  % apoptotic cells at given concentration (nM): 9.8%
[1]; human serum (48 hrs), 10 nM
  % apoptotic cells at given concentration (nM): 9.4%
[1]; human serum (48 hrs), 30 nM
  % apoptotic cells at given concentration (nM): 9.5%
[1]; human serum (48 hrs), 100 nM
  % apoptotic cells at given concentration (nM): 9.4%
[1]; human serum (48 hrs), 300 nM
  % apoptotic cells at given concentration (nM): 8.7%
[1]; human serum (48 hrs), 1000 nM
  % apoptotic cells at given concentration (nM): 8.6%
[1]; human serum (48 hrs), 3000 nM
  % apoptotic cells at given concentration (nM): 8.2%
[1]; medium, 1 nM
  % apoptotic cells at given concentration (nM): 13.0%
[1]; medium, 3 nM
  % apoptotic cells at given concentration (nM): 14.0%
[1]; medium, 10 nM
  % apoptotic cells at given concentration (nM): 12.1%
[1]; medium, 30 nM
  % apoptotic cells at given concentration (nM): 10.9%
[1]; medium, 100 nM
  % apoptotic cells at given concentration (nM): 11.2%
[1]; medium, 300 nM
  % apoptotic cells at given concentration (nM): 11.3%
[1]; medium, 1000 nM
  % apoptotic cells at given concentration (nM): 12.1%
[1]; medium, 3000 nM
  % apoptotic cells at given concentration (nM): 10.9%
[2]; FIGS. 4-5
  bioactivity in IL-2 inhibition assays (in words): some level of bioactivity
[2]; 0.001 nM
  IL-2 pg/mL at given concentration (nM): 883.9 pg/mL
[2]; 0.01 nM
  IL-2 pg/mL at given concentration (nM): 754.1 pg/mL
[2]; 0.1 nM
  IL-2 pg/mL at given concentration (nM): 810.4 pg/mL
[2]; 1 nM
  IL-2 pg/mL at given concentration (nM): 900.4 pg/mL
[2]; 10 nM
  IL-2 pg/mL at given concentration (nM): 796.3 pg/mL
[2]; 100 nM
  IL-2 pg/mL at given concentration (nM): 873.3 pg/mL
[2]; 1000 nM
  IL-2 pg/mL at given concentration (nM): 759.9 pg/mL
[2]; 10000 nM
  IL-2 pg/mL at given concentration (nM): 459.8 pg/mL
